Data on one compound can be found in patent US12239624B2, “Glyceryl tris (beta-hydroxybutyrate) and neuronal transient ischemic attacks” (NeuroEnergy Ventures, Inc., priority 2019, dated 2025).

The conditions of this data set: in vivo.

As to `CC(O)CC(=O)OCC(COC(=O)CC(C)O)OC(=O)CC(C)O` (stereo not drawn) [GTβHB, Glyceryl Tris (Beta-HydroxyButyrate)], the “time for beta-hydroxybutyrate and acetoacetate from GTβHB to return to pre-administration levels” value is not above 24 h. The “period within which GTβHB is cleared by the body” value (po) was not above 24 h.
